Measurements as given in US9833463B2, “Sitagliptin tannate complex” (MERCK SHARP & DOHME CORP., priority 2014, dated 2017).

Assay type: physicochemical
Procedure: The dissolution profile of the sitagliptin tannate complexes of Example 1 and 2 using simulated saliva fluid (SSF) and simulated gastric fluid (SGF) by using the following two stage dissolution protocol:
Stage 1: A sample of sitagliptin tannate complex of Example 1 or 2 was placed in 10 mL of SSF, which was prepared by dissolving 8.0 g of NaCl, 0.19 g of potassium phosphate monobasic, and 2.38 g of sodium phosphate dibasic in 1 L of water, and adjusting to pH 6.8 with phosphoric acid, heated to 37° C., for 1 minute and an aliquot was removed.
Stage 2: The remaining solution transferred to 500 mL of SGF, which was prepared by dissolving 2.0 g of NaCl in 1 L of water, and adding 1.4 mL of concentrated hydrochloric acid. The SGF was stirred at 37° C. with apparatus 2 (paddles), and aliquots were collected at 6 time-points.
The aliquots were then analyzed by HPLC to determine the amount of free sitagliptin.

| solubility of the complex at neutral pH | release in acidic pH (acidic pH, such as that found in the stomach) | release rate at neutral pH (neutral pH, such as that found in the mouth) | Substance | sitagliptin release from the complex in SGF (stage 2) (simulated gastric fluid (low pH), 37° C., apparatus 2 (paddles), 6 time-points, FIG. 1 / FIG. 2) | sitagliptin released from the complex in SSF (stage 1) (simulated saliva fluid pH 6.8, 37° C., 1 minute, FIG. 1 / FIG. 2) |
| --- | --- | --- | --- | --- | --- |
| not soluble or almost not soluble | immediate release | negligible release rate | sitagliptin tannate complex | – | – |
| – | – | – | sitagliptin tannate complex [Example 2] | rapidly released | very little to no sitagliptin was released |
